What was measured:
[1] = xn = mol fraction of the nth substance listed; details: 101.32 kPa, Liquid, Vibrating tube method
[2] = excess molar enthalpy (molar enthalpy of mixing); xn = mol fraction of the nth substance listed; details: 291.15 K, 101 kPa, Liquid, Calvet calorimetry
[3] = Liquid; for mass density: 101.32 kPa, Vibrating tube method; for vapor or sublimation pressure: Ebulliometric method (Recirculating still)

CCOC(C)=O [ethyl acetate] + CCCCC
[1], x1 = 1
Details | mass density [kg/m3]
291.15 K | 902.88
298.15 K | 894.4

CCOC(C)=O [ethyl acetate] + CCCCCCCC
[1], x1 = 1
Details | mass density [kg/m3]
291.15 K | 902.88
298.15 K | 894.4
318.15 K | 869.6
328.15 K | 857.17

CCOC(C)=O [ethyl acetate] + CCCCCCCCCC
[1], x1 = 1
Details | mass density [kg/m3]
291.15 K | 902.88
298.15 K | 894.4
318.15 K | 869.6
328.15 K | 857.17

CCCCCCC [heptane] + CCOC(C)=O
[1], x2 = 0
Details | mass density [kg/m3]
291.15 K | 685.28
298.15 K | 679.48
318.15 K | 662.06
328.15 K | 653.6

CCOC(C)=O [ethyl acetate] + CCCCCCCCC
[1], x1 = 1
Details | mass density [kg/m3]
291.15 K | 902.88
298.15 K | 894.4
318.15 K | 869.6
328.15 K | 857.17

CCCCCC [hexane] + CCOC(C)=O
[1], x2 = 0
Details | mass density [kg/m3]
291.15 K | 661.17
298.15 K | 654.9
318.15 K | 636.5
328.15 K | 627

CCCCC [pentane] + CCOC(C)=O
[2]
Details | excess molar enthalpy [kcal/mol]
x2 = 0.0628 | 0.0777
x2 = 0.1353 | 0.139
x2 = 0.2024 | 0.194
x2 = 0.2623 | 0.232
x2 = 0.3345 | 0.274
x2 = 0.4047 | 0.295
x2 = 0.4549 | 0.305
x2 = 0.514 | 0.307
x2 = 0.5664 | 0.3
x2 = 0.6434 | 0.283
x2 = 0.7049 | 0.256
x2 = 0.7712 | 0.221
x2 = 0.8427 | 0.175
x2 = 0.9116 | 0.118
x2 = 0.9483 | 0.065

mass density [kg/m3], [1]
Details | 291.15 K | 298.15 K
x2 = 0 | 628.22 | 621.35
x2 = 0.0126 | 630.77 | –
x2 = 0.026 | – | 626.34
x2 = 0.0577 | 640.44 | –
x2 = 0.0607 | – | 633.6
x2 = 0.0897 | – | 639.94
x2 = 0.0922 | 648.09 | –
x2 = 0.1609 | – | 655.94
x2 = 0.1813 | 668.69 | –
x2 = 0.2315 | – | 672.51
x2 = 0.2507 | 685.25 | –
x2 = 0.3028 | – | 690.12
x2 = 0.3232 | 703.25 | –
x2 = 0.3576 | – | 703.99
x2 = 0.3916 | 721.01 | –
x2 = 0.4301 | – | 722.92
x2 = 0.4566 | 738.23 | –
x2 = 0.4703 | – | 733.71
x2 = 0.5276 | – | 749.44
x2 = 0.5296 | 758.09 | –
x2 = 0.5916 | 775.48 | –
x2 = 0.6517 | 792.81 | –
x2 = 0.6553 | – | 785.76
x2 = 0.7126 | – | 802.69
x2 = 0.7164 | 812.13 | –
x2 = 0.7725 | – | 820.79
x2 = 0.7788 | 831.21 | –
x2 = 0.8245 | – | 836.93
x2 = 0.8582 | 856.32 | –
x2 = 0.8825 | – | 855.3
x2 = 0.8961 | 868.57 | –
x2 = 0.9342 | – | 872.31
x2 = 0.9693 | 892.55 | –
x2 = 0.9896 | – | 890.79

CCCCCCCCC [nonane]
[3]
Details | mass density [kg/m3] | vapor or sublimation pressure [kPa]
291.15 K | 719.2 | –
298.15 K | 713.85 | –
318.15 K | 698.09 | –
328.15 K | 690.4 | –
365.3 K | – | 15.58
369.25 K | – | 18.07
372.81 K | – | 20.58
376.46 K | – | 23.49
379.71 K | – | 26.35
382.25 K | – | 28.78
384.65 K | – | 31.22
387.02 K | – | 33.8
389.45 K | – | 36.62
391.8 K | – | 39.52
393.48 K | – | 41.74
395.26 K | – | 44.15
396.96 K | – | 46.56
398.71 K | – | 49.15
400.61 K | – | 52.12
402.01 K | – | 54.42
403.31 K | – | 56.55
404.73 K | – | 59.01
406.27 K | – | 61.77
407.78 K | – | 64.58
408.93 K | – | 66.76
410.11 K | – | 69.09
411.32 K | – | 71.53
412.52 K | – | 74.01
413.68 K | – | 76.48
414.83 K | – | 79.03
415.9 K | – | 81.41
417.22 K | – | 84.44
418.24 K | – | 86.85
419.28 K | – | 89.41
420.5 K | – | 92.43
421.62 K | – | 95.25
422.83 K | – | 98.4
423.2 K | – | 99.35
423.61 K | – | 100.44
423.94 K | – | 101.32
424.92 K | – | 104
425.83 K | – | 106.5
426.71 K | – | 108.99
427.6 K | – | 111.54
428.4 K | – | 113.88
429.26 K | – | 116.44
430.22 K | – | 119.35
431.09 K | – | 122.04
432.04 K | – | 124.99
432.94 K | – | 127.82
433.74 K | – | 130.52
434.68 K | – | 133.6
435.58 K | – | 136.62
436.31 K | – | 139.12
437.11 K | – | 141.9
437.95 K | – | 144.81
438.67 K | – | 147.42
439.45 K | – | 150.23
440.11 K | – | 152.67
440.76 K | – | 155.08
441.41 K | – | 157.53
442.05 K | – | 159.98
442.77 K | – | 162.8
443.49 K | – | 165.61
444.23 K | – | 168.53
444.93 K | – | 171.39
445.49 K | – | 173.63
446.19 K | – | 176.52
446.75 K | – | 178.85
447.44 K | – | 181.82
448.07 K | – | 184.55
448.61 K | – | 186.86
449.27 K | – | 189.75
449.81 K | – | 192
450.56 K | – | 195.54
